Test results published in patent US20100137381A1, “ACETAMIDE DERIVATIVES AS POTASSIUM CHANNEL MODULATORS” (NeuroSearch A/S, priority 2007, published 2010).
Blank lines part the entries; values can stand above or below the compound they belong to.

What was measured:
[1] = molecular target: chloride channel (human erythrocyte chloride conductance); test: In vitro human erythrocyte chloride conductance; assay type: cell-based; details: suspensions of human erythrocytes; calculated from dose-response of membrane Cl-conductance (GCl); read-out: KD-value, chloride conductance block
Excerpt: In this example the chloride channel blocking activity of an acetamide derivative representative of the invention, i.e. Compound 3 (2-(4-Chloro-phenyl)-N-[4′-chloro-3-(1H-tetrazol-5-yl)-biphenyl-4-yl]-acetamide), has been determined.
All dose-response experiments were therefore performed by concomitant measurements of conductive netfluxes of Cl^− (JCl) and membrane potentials (Vm) in suspensions of erythrocytes as described by Bennekou et al. (Bennekou P and Christophersen P: Flux ratio of Valinomycin—Mediated K^+Fluxes across the Human Red Cell Membrane in the presence of the Protronophore CCCP; J. Membrane Biol. 1986 93 221-227).
The membrane Cl-conductances (GCl) were calculated according to Hodgkin et al. (Hodgkin A L and Huxley A F: The components of membrane conductance in the giant axon of Loligo; J. Physiol. Lond. 1952 116 449-472) using the following equation: […]
where F is the Faraday constant and ECl is the Nernst potential for the Cl-ion.

[2] = molecular target: T1, BK channels heterologously expressed in Xenopus laevis oocytes (Homo sapiens, UniProt Q12791); test: BK channel activation, two-electrode voltage clamp in Xenopus laevis oocytes; assay type: cell-based; details: depolarising step to +20 mV
T1 construct: expressed in transfected cells; host or cells: Xenopus laevis oocytes
Experimental: In this example the BK channel opening activity of two acetamide derivatives of to the invention, i.e. 2-(3,5-difluoro-phenyl)-N-[3-(5-oxo-4,5-dihydro-[1,2,4]oxadiazol-3-yl)-4′-trifluoromethyl-biphenyl-4-yl]-acetamide (Compound 7), and 2-(3,5-bis-trifluoromethyl-phenyl)-N-[4-bromo-2-(1H-tetrazol-5-yl)-phenyl]-acetamide (Compound 2) herein designated Compound A and Compound B, respectively, is determined using BK channels heterologously expressed in Xenopus laevis oocytes.
The electrical current through the BK channel is measured by conventional two-electrode voltage clamp. BK current is activated by repeated step protocols. In brief, this protocol goes from a resting membrane potential of −40 mV lasting for 5 s to a depolarised step to +20 mV lasting for 1 s. The protocol was repeated continuously.
Having reached a stable current level, Compound A (3 μM) and Compound B (10 μM), respectively, was added. A marked increase in the current activated by depolarisation could be observed. The BK current activity returned to baseline after approximately 30-80 seconds of wash. In summary BK current was increased by 367±92% in the presence of 3 μM of Compound A (n=3, SD value), and 327±88% in the presence of 10 μM of Compound B.

T1 sequence (Q12791 whole entry): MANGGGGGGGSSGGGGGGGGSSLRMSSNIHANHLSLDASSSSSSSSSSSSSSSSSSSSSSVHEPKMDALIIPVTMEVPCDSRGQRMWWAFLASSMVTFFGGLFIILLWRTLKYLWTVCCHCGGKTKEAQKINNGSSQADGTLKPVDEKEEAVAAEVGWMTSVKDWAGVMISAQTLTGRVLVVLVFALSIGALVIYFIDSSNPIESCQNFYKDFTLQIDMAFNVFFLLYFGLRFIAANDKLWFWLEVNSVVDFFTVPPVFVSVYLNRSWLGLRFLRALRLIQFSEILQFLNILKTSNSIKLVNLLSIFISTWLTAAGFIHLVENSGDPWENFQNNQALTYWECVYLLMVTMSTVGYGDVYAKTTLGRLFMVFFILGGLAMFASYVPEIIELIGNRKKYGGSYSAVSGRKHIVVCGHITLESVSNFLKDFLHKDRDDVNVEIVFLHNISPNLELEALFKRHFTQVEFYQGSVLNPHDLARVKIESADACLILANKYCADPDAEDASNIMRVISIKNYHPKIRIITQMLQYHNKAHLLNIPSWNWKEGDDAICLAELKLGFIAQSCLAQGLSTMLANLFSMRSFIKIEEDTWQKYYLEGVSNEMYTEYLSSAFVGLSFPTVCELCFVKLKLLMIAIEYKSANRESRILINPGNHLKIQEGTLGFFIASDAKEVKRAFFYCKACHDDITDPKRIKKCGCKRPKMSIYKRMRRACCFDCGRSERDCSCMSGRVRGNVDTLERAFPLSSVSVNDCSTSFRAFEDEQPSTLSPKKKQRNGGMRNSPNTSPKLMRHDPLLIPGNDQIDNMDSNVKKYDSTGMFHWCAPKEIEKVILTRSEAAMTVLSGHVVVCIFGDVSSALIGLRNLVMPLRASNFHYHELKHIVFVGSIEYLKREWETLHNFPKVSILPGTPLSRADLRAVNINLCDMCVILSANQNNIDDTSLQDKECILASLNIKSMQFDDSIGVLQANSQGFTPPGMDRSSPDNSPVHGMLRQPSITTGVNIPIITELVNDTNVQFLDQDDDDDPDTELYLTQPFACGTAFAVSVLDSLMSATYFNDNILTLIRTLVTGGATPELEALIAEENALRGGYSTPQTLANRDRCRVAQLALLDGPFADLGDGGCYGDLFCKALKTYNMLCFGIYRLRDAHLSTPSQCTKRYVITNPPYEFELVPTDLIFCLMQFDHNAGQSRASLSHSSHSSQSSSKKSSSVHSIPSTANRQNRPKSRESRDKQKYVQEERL

Kd [1]: 0.09 µM
Structure (SMILES): O=C(Cc1ccc(Cl)cc1)Nc1ccc(-c2ccc(Cl)cc2)cc1-c1nnn[nH]1 [Compound 3, 2-(4-Chloro-phenyl)-N-[4′-chloro-3-(1H-tetrazol-5-yl)-biphenyl-4-yl]-acetamide]

BK current increase ([2]; 10 μM compound): 327±88%
Structure (SMILES): O=C(Cc1cc(C(F)(F)F)cc(C(F)(F)F)c1)Nc1ccc(Br)cc1-c1nnn[nH]1 [Compound B, 2-(3,5-Bis-trifluoromethyl-phenyl)-N-[4-bromo-2-(1H-tetrazol-5-yl)-phenyl]-acetamide]

BK current increase ([2]; 3 μM compound, n=3, SD value): 367±92%
Structure (SMILES): O=C(Cc1cc(F)cc(F)c1)Nc1ccc(-c2ccc(C(F)(F)F)cc2)cc1-c1noc(=O)[nH]1 [Compound A, 2-(3,5-difluoro-phenyl)-N-[3-(5-oxo-4,5-dihydro-[1,2,4]oxadiazol-3-yl)-4′-trifluoromethyl-biphenyl-4-yl]-acetamide]
